Some results are limits rather than exact numbers.

For one assay, the target named is T1, CFTR (Homo sapiens, UniProt P13569, DEL508-508).
T1 construct: endogenous in cells; host or cells: primary human bronchial epithelial cells from CF subjects (F508del/MF-HBE), differentiated at air-liquid interface
T1 sequence (P13569 with tags, fused parts or gaps DEL508-508): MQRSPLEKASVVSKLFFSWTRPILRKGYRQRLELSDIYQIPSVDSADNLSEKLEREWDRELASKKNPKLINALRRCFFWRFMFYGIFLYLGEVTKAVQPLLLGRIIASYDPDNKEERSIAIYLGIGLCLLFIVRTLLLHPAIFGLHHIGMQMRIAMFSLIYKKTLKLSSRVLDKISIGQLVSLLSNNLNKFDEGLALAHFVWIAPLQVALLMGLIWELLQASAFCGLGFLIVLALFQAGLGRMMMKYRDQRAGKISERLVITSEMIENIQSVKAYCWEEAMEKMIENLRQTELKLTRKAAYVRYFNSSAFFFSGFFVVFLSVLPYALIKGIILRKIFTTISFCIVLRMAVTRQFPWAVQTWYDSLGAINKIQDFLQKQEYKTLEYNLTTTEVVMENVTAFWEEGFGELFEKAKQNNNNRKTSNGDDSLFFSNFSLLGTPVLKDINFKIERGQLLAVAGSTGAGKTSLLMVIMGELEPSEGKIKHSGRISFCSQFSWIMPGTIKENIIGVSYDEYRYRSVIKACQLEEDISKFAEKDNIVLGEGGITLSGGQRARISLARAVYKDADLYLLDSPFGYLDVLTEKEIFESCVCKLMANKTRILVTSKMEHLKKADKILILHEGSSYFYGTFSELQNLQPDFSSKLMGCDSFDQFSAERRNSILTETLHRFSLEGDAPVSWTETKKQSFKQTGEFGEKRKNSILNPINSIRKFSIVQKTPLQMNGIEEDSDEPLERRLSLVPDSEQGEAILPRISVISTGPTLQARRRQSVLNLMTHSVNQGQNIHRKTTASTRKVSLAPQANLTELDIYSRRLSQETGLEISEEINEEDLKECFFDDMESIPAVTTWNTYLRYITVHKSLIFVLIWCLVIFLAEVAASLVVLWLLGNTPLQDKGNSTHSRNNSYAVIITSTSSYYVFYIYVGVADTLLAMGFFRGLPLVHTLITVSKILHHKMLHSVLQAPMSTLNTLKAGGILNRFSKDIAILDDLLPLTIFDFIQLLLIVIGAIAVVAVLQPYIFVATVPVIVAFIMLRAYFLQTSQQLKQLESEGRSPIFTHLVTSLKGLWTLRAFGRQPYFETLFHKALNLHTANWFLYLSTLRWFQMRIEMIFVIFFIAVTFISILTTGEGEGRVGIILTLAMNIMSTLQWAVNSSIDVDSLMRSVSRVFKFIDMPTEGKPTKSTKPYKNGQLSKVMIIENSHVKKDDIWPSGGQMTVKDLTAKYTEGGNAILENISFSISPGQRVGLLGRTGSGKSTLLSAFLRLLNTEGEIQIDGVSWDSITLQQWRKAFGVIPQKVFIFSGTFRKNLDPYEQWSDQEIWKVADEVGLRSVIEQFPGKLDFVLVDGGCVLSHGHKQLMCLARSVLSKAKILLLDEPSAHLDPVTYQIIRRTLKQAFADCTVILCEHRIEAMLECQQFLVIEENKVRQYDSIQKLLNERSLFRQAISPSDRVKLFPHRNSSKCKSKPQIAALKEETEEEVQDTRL
Kind of assay: HBE2 assay: Ussing chamber assay of CFTR-mediated short-circuit currents. In kind it is cell-based. The settings on record: 3 μM corrector; F508del/MF-HBE cells; with 44 nM potentiator, 18-24 hours, 20% human serum. The method, boiled down:
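F508del/MF-HBE cultured >14 days at air-liquid interface, mounted in Ussing chambers; transepithelial short-circuit current recorded under voltage clamp (Vhold=0 mV) at 37 °C. CFTR-mediated ISC (μA/cm^2) taken as peak forskolin response relative to steady-state current after inhibition; corrector activity assessed this way.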
For the compound `CCC(CC)[C@@H]1COc2cc(-c3c(C)cccc3C)nc(n2)NS(=O)(=O)c2cccc(c2)C(=O)N1Cc1cncc(N(C)C2CCC2)n1` [Compound 1779], the “HBE2 Activity at 3 μM (%)” value is reported as “+++ (+++ is >60+)”.
Same read-out and setting: the same measure for `Cc1cccc(C)c1-c1cc2nc(n1)NS(=O)(=O)c1cccc(c1)C(=O)N(Cc1cncc(N3[C@H](C)CC[C@H]3C)n1)[C@H](CCC(C)(C)C)CO2` [Compound 1947]: “+++ (+++ is >60+)”; for `Cc1cccc(C)c1-c1cc2nc(n1)NS(=O)(=O)c1cccc(c1)C(=O)N(Cc1cncc(N(C)C3CCC3)n1)[C@@H]1CN(C3CC4(CCCC4)C3)C[C@H]1O2` [Compound 1323, (3R,7R)-8-[[6-[Cyclobutyl(methyl)amino]pyrazin-2-yl]methyl]-19-(2,6-dimethylphenyl)-15,15-dioxo-5-spiro[3.4]octan-2-yl-2-oxa-15λ^6-thia-5,8,16,18,21-pentazatetracyclo[15.3.1.110,14.03,7]docosa-1(20),10,12,14(22),17(21),18-hexaen-9-one]: “++ (++ is 30-60%)”; for `Cc1cccc(C)c1-c1cc2nc(n1)NS(=O)(=O)c1cccc(c1)C(=O)N(Cc1cncc(N(C)[C@@H]3CC[C@H]3C)n1)[C@H](CC(C)(C)C)CO2` (stereo in doubt) [Compound 1772]: “+++ (+++ is >60+)”.
The same measure, in the same setting: in the case of `CCN(CC1CC1)c1cncc(CN2C(=O)c3cccc(c3)S(=O)(=O)Nc3nc(cc(-c4c(C)cccc4C)n3)OC[C@H]2CCC(C)(C)C)n1` [Compound 1809] it was “+++ (+++ is >60+)”; in that of `Cc1cccc(C)c1-c1cc2nc(n1)NS(=O)(=O)c1cc(n(C)n1)C(=O)N(Cc1cncc(N3CCC[C@H]3C)n1)[C@H](CC(C)(C)C)CO2` [Compound 1945], “+++ (+++ is >60+)”.
On the same count and under the same terms, in the case of `Cc1cccc(C)c1-c1cc2nc(n1)NS(=O)(=O)c1cccc(c1)C(=O)N(Cc1cncc(N(C)C3CC4(CC4)C3)n1)[C@H](COC(C)C)CO2` [Compound 1949] it was “+++ (+++ is >60+)”; in that of `Cc1cccc(C)c1-c1cc2nc(n1)NS(=O)(=O)c1cccc(c1)C(=O)N(Cc1cnc3cc(C(C)C)n(C)c3n1)[C@H](CC1(C)CC1)CO2` [Compound 1831], “+++ (+++ is >60+)”.
As to `Cc1cccc(C)c1-c1cc2nc(n1)NS(=O)(=O)c1cccc(c1)C(=O)N(Cc1cncc(N(C)C(C)C)n1)[C@H](CCC1CC1)CO2` [Compound 1718], the “HBE2 Activity at 3 μM (%)” value is given as “+++ (+++ is >60+)”.
The same measure, in the same setting: the same measure for `Cc1cccc(C)c1-c1cc2nc(n1)NS(=O)(=O)c1cccc(c1)C(=O)N(Cc1cncc(N3CC[C@@H]3C)n1)[C@H](CC1CCCC1)CO2` (stereo in doubt) [Compound 1843]: “+++ (+++ is >60+)”; for `Cc1cccc(C)c1-c1cc2nc(n1)NS(=O)(=O)c1cccc(c1)C(=O)N(Cc1cncc(N3CCCC[C@H]3C)n1)[C@H](CC1CCCCC1)CO2` [Compound 1822]: “+++ (+++ is >60+)”.
The same measure, in the same setting: in the case of `Cc1cccc(C)c1-c1cc2nc(n1)NS(=O)(=O)c1cccc(c1)C(=O)N(Cc1cncc(N3CCCC3C)n1)[C@H](C1CC(C)(C)C1)CO2` (single isomer, unassigned) [Compound 1338] it was “+++ (+++ is >60+)”.
Same read-out and setting: the same measure for `Cc1cccc(C)c1-c1cc2nc(n1)NS(=O)(=O)c1cccc(c1)C(=O)N(Cc1cncc(N3CCCO[C@H]4CC[C@H]43)n1)[C@H](CC(C)(C)C)CO2` (stereo in doubt) [Compound 1952]: “+++ (+++ is >60+)”; for `CC[C@@H]1CCN1c1cncc(CN2C(=O)c3cccc(c3)S(=O)(=O)Nc3nc(cc(-c4c(C)cccc4C)n3)OC[C@H]2CC(C)(C)C)n1` [Compound 1721]: “+++ (+++ is >60+)”.
In the case of `Cc1cccc(C)c1-c1cc2nc(n1)NS(=O)(=O)c1cccc(c1)C(=O)N(Cc1cncc(N(C)C(C)C)n1)[C@H](CCC(C)C)CO2` [Compound 1771], the “HBE2 Activity at 3 μM (%)” value was “+++ (+++ is >60+)”.
Still for that read-out and setting: the same measure for `Cc1cccc(C)c1-c1cc2nc(n1)NS(=O)(=O)c1cccc(c1)C(=O)N(Cc1cncc(N(C)C3CCC3)n1)[C@@H]1CN(C3CC4(CC4)C3)C[C@H]1O2` [Compound 1742]: “+++ (+++ is >60+)”; for `Cc1cccc(C)c1-c1cc2nc(n1)NS(=O)(=O)c1cccc(c1)C(=O)N(Cc1cncc(N3CCC[C@@H](C)[C@H]3C)n1)[C@H](CC(C)(C)C)CO2` [Compound 1783]: “+++ (+++ is >60+)”; for `Cc1cccc(C)c1-c1cc2nc(n1)NS(=O)(=O)c1cccc(c1)C(=O)N(Cc1cnc3cc(C(C)C)n(C)c3n1)[C@H](CC(C)(C)C(F)(F)F)CO2` [Compound 1836]: “+++ (+++ is >60+)”.
The same measure, in the same setting: the same measure for `Cc1cccc(C)c1-c1cc2nc(n1)NS(=O)(=O)c1cccc(c1)C(=O)N(Cc1cccc(N3CCC[C@H]3C)n1)[C@H](CC1(C)CCC1)CO2` [Compound 1777]: “+++ (+++ is >60+)”; for `Cc1cccc(C)c1-c1cc2nc(n1)NS(=O)(=O)c1cccc(c1)C(=O)N(Cc1cncc(N(C)CC(C)(C)F)n1)[C@H](CCC(C)(C)C)CO2` [Compound 1818]: “+++ (+++ is >60+)”; for `Cc1cccc(C)c1-c1cc2nc(n1)NS(=O)(=O)c1cccc(c1)C(=O)N(Cc1cncc(C3CCCCO3)n1)[C@H](CCC(C)(C)C)CO2` (stereo in doubt) [Compound 1881]: “+++ (+++ is >60+)”.
On the same count and under the same terms, the same measure for `Cc1cccc(C)c1-c1cc2nc(n1)NS(=O)(=O)c1cccc(c1)C(=O)N(Cc1cnc3ccn(CC(C)C)c3n1)[C@H](CC(C)(C)C)CO2` [Compound 1755]: “+++ (+++ is >60+)”; for `Cc1cccc(C)c1-c1cc2nc(n1)NS(=O)(=O)c1cccc(c1)C(=O)N(Cc1cncc(N(C)CC(C)C)n1)[C@H](CC(C)C)CO2` [Compound 1713]: “+++ (+++ is >60+)”.

Still in this assay, the particulars now being: 3 μM; F508del/MF-HBE cells; with 44 nM potentiator; 18-24 hours; 20% human serum.
For the compound `COC(=O)N(C)CCN(C)c1cncc(CN2C(=O)c3cccc(c3)S(=O)(=O)Nc3nc(cc(-c4c(C)cccc4C)n3)OC[C@H]2CC(C)(C)C)n1` [Compound 1686], the “HBE2 Activity at 3 μM (%)” value was “+++ (+++ is >60+)”.
Same read-out and setting: in the case of `Cc1cccc(C)c1-c1cc2nc(n1)NS(=O)(=O)c1cccc(c1)C(=O)N(Cc1cncc(N3CCC4OCCC43)n1)[C@H](CC(C)(C)C)CO2` (some centres unmarked) [Compound 1643] it was “+++ (+++ is >60+)”; in that of `Cc1cccc(C)c1-c1cc2nc(n1)NS(=O)(=O)c1cccc(c1)C(=O)N(Cc1cncc(N(C)C3CCC3)n1)[C@H](CC1(C)CC1)CO2` [Compound 1668], “+++ (+++ is >60+)”; in that of `CCCOc1cnc(CN2C(=O)c3cccc(c3)S(=O)(=O)Nc3nc(cc(-c4c(C)cccc4C)n3)OC[C@H]2CC2(C)CCC2)nc1` [Compound 1641], “+++ (+++ is >60+)”.
Still for that read-out and setting: in the case of `CCOc1cnc(CN2C(=O)c3cccc(c3)S(=O)(=O)Nc3nc(cc(-c4c(C)cccc4C)n3)OC[C@H]2CCC2CC2)nc1` [Compound 1596] it was “+++ (+++ is >60+)”; in that of `Cc1cccc(C)c1-c1cc2nc(n1)NS(=O)(=O)c1cccc(c1)C(=O)N(Cc1cncc(N3CC[C@@H]4CN(C(=O)OC(C)(C)C)CC43)n1)[C@H](CC(C)(C)C)CO2` (stereo in doubt) [Compound 1649], “+++ (+++ is >60+)”; in that of `Cc1cccc(C)c1-c1cc2nc(n1)NS(=O)(=O)c1cccc(c1)C(=O)N(Cc1cncc(N3CC[C@H]4C3CC(=O)N4C)n1)[C@H](CC(C)(C)C)CO2` (stereo in doubt) [Compound 1640], “+++ (+++ is >60+)”.
Take `Cc1cccc(C)c1-c1cc2nc(n1)NS(=O)(=O)c1cccc(c1)C(=O)N(Cc1ncc(OC(C)C)cn1)[C@H](CCC1CC1)CO2` [Compound 1597]: the “HBE2 Activity at 3 μM (%)” value is “+++ (+++ is >60+)”.
In the case of `Cc1cccc(C)c1-c1cc2nc(n1)NS(=O)(=O)c1cccc(c1)C(=O)N(Cc1ccc(N3CC(C)(C)C3)cn1)[C@H](CC(C)(C)C)CO2` [Compound 1655], the “HBE2 Activity at 3 μM (%)” value was “+++ (+++ is >60+)”.
On the same count and under the same terms, in the case of `CCCOc1cnc(CN2C(=O)c3cccc(c3)S(=O)(=O)Nc3nc(cc(-c4c(C)cccc4C)n3)OC[C@H]2CCC2CC2)nc1` [Compound 1600] it was “+++ (+++ is >60+)”; in that of `Cc1cccc(C)c1-c1cc2nc(n1)NS(=O)(=O)c1cccc(c1)C(=O)N(Cc1cncc(N(C)CC(=O)N(C)C)n1)[C@H](CC(C)(C)C)CO2` [Compound 1630], “++ (++ is 30-60%)”.
Still for that read-out and setting: in the case of `Cc1cccc(C)c1-c1cc2nc(n1)NS(=O)(=O)c1cccc(c1)C(=O)N(Cc1ncc(N3CCC(C)(C)CC3)cn1)[C@H](CC1(C)CC1)CO2` [Compound 1560] it was “+++ (+++ is >60+)”.
Same read-out and setting: in the case of `CC(=O)N1CC2[C@@H](CCN2c2cncc(CN3C(=O)c4cccc(c4)S(=O)(=O)Nc4nc(cc(-c5c(C)cccc5C)n4)OC[C@H]3CC(C)(C)C)n2)C1` (stereo in doubt) [Compound 1663] it was “+++ (+++ is >60+)”; in that of `Cc1cccc(C)c1-c1cc2nc(n1)NS(=O)(=O)c1cccc(c1)C(=O)N(Cc1cncc(N(C)CC(C)C)n1)[C@H](CC1(C)CC1)CO2` [Compound 1711], “+++ (+++ is >60+)”; in that of `Cc1cccc(C)c1-c1cc2nc(n1)NS(=O)(=O)c1cccc(c1)C(=O)N(Cc1ncc(OC3CCC3)cn1)[C@H](CC1(C)CC1)CO2` [Compound 1576], “+++ (+++ is >60+)”.

Staying with this assay, now noted: F508del/MF-HBE cells; with 44 nM potentiator; 18-24 hours; 20% human serum.
For the compound `Cc1cccc(C)c1-c1cc2nc(n1)NS(=O)(=O)c1cccc(c1)C(=O)N(Cc1cncc(N(C)C3CCC3)n1)[C@H](CC1(C)CC1)CO2` [Compound 1668], the EC50 (commonly the concentration needed to bring the measured effect to its halfway point) is < 1000 nM.
Take `Cc1cccc(C)c1-c1cc2nc(n1)NS(=O)(=O)c1cccc(c1)C(=O)N(Cc1cncc(NC3CCC3)n1)[C@H](CC(C)(C)C)CO2` [Compound 1603]: the EC50 was < 1000 nM.
Same read-out and setting: in the case of `Cc1cccc(C)c1-c1cc2nc(n1)NS(=O)(=O)c1cccc(c1)C(=O)N(Cc1cncc(N(C)CC(C)C)n1)[C@H](CC1(C)CC1)CO2` [Compound 1711] it was < 1000 nM.

The same assay, now with this note: F508del/MF-HBE cells; with 44 nM potentiator; 18-24 hours; 20% human serum; read-out: HBE2 Max activity (%).
As for `Cc1cccc(C)c1-c1cc2nc(n1)NS(=O)(=O)c1cccc(c1)C(=O)N(Cc1cncc(N(C)C3CCC3)n1)[C@H](CC1(C)CC1)CO2` [Compound 1668], the Emax was > 60%.
In the case of `Cc1cccc(C)c1-c1cc2nc(n1)NS(=O)(=O)c1cccc(c1)C(=O)N(Cc1cncc(NC3CCC3)n1)[C@H](CC(C)(C)C)CO2` [Compound 1603], the Emax was > 60%.
Consider `Cc1cccc(C)c1-c1cc2nc(n1)NS(=O)(=O)c1cccc(c1)C(=O)N(Cc1cncc(N(C)CC(C)C)n1)[C@H](CC1(C)CC1)CO2` [Compound 1711], for which the Emax is > 60%.

(Values after patent publication US20240150377A1, “MODULATORS OF CYSTIC FIBROSIS TRANSMEMBRANE CONDUCTANCE REGULATOR” (VERTEX PHARMACEUTICALS INCORPORATED, priority 2020, published 2024).)
